Laboratory results as given in the Kinase Knowledgebase extract (Sharma et al. 2016).

What was measured:
[1] = target: PIK3CG (human) (UniProt P48736); assay: Inhibition of PIK3CG Kinase Activity
[2] = target: PIK3CA (human) (UniProt P42336); assay: Enzyme Assay
Sequence of PIK3CA (human) (P42336 whole entry, looked up): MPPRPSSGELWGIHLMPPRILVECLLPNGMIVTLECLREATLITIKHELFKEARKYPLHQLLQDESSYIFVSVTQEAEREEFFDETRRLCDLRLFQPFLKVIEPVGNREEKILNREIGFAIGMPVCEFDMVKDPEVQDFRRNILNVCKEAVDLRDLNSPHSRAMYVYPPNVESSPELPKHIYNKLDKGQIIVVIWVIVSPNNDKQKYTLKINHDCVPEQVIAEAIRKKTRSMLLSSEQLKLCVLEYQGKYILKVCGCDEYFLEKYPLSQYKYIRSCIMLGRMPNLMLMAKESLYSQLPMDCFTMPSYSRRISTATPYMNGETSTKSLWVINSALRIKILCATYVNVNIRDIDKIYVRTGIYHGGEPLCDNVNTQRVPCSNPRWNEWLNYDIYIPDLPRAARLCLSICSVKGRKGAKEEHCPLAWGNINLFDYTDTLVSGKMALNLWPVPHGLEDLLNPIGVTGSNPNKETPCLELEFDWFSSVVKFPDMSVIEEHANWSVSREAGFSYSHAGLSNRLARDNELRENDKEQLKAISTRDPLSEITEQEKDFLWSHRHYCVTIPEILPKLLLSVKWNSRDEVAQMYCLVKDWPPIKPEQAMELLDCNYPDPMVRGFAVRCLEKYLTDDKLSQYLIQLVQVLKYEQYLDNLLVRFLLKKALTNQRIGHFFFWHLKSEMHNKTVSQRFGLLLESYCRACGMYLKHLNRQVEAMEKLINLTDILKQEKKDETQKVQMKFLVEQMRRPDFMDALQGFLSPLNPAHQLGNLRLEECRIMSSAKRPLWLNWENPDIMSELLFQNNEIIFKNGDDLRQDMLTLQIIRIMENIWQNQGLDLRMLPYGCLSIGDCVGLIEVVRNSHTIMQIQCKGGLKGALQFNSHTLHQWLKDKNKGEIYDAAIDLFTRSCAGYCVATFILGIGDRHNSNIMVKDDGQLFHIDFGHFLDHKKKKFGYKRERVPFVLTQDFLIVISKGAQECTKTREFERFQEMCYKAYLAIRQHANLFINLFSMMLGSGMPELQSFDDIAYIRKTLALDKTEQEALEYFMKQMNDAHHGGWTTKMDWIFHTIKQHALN

Sequence of PIK3CG (human) (P48736 whole entry, looked up): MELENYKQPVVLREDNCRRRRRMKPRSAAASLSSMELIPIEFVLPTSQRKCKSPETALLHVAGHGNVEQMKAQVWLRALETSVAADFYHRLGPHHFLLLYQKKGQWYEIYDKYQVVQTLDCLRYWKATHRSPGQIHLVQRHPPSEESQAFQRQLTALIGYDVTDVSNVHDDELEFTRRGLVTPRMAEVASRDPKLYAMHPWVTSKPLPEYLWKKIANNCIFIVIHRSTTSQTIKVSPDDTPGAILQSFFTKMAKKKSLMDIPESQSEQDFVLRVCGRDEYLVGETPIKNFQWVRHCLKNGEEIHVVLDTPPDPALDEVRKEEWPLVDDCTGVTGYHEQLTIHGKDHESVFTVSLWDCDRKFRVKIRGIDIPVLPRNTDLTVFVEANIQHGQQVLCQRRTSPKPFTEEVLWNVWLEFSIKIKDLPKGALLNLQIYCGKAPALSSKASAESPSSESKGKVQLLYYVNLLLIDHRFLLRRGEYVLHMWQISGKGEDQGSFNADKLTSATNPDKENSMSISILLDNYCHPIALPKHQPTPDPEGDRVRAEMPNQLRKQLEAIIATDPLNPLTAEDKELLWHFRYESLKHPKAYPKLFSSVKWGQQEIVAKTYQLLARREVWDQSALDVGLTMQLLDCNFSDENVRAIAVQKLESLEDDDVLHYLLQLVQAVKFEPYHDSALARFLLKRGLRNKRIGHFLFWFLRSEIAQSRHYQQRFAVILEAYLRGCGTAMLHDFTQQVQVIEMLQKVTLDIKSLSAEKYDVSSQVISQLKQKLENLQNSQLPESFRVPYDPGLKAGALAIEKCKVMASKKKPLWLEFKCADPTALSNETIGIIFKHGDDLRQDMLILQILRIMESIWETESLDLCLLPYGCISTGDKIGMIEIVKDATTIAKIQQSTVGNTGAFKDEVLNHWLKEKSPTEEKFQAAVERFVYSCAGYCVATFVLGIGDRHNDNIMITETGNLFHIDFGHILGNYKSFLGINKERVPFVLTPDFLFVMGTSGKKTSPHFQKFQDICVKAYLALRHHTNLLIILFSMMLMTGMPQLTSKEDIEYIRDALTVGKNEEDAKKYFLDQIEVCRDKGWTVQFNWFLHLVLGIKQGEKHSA

| Compound | IC50 [1] | IC50 [2] |
| --- | --- | --- |
| O=C1C(=Cc2c(-c3ccccc3)n(CCN3CCCCC3)c3ccccc23)Oc2cc(O)cc(O)c21 | 4.88 µM | 2.28 µM |
| Cc1ccc2c(c1)C(=O)/C(=C/c1c(C)[nH]c3ccc([N+](=O)[O-])cc13)S2 |  | 9.19 µM |
| O=C1C(=Cc2c(-c3ccccc3)n(Cc3cccnc3)c3ccccc23)Oc2cc(O)cc(O)c21 | 11 µM |  |
| COc1ccc2c(c1)c(C=C1Oc3cccc(O)c3C1=O)c(C)n2CCN1CCN(C)CC1 | 4.5 µM | 0.488 µM |
| Cc1ccc2c(c1)C(=O)/C(=C/c1c(-c3ccc4ccccc4c3)[nH]c3ccccc13)S2 |  | 12 µM |
| CCc1cc(OC)cc2c(/C=C3\Oc4cc(O)cc(O)c4C3=O)cn(CCCC#N)c12 |  | 0.0625 µM |
| COc1ccc(-c2cccc3c2c(/C=C2\Oc4cc(O)cc(O)c4C2=O)cn3C)cn1 | 5 µM |  |
| Cc1cccc2c1c(/C=C1\Oc3cc(O)cc(O)c3C1=O)c(-c1ccccn1)n2C | 11 µM |  |
| CN(C)Cc1ccc(-c2ccc(-c3c(/C=C4\Oc5cc(O)cc(O)c5C4=O)c4ccccc4n3C)cc2)cc1 | 2.31 µM | 1.23 µM |
| O=C1C(=Cc2c(-c3ccccc3)n(Cc3ccncc3)c3ccccc23)Oc2cc(O)cc(O)c21 | 11 µM |  |
| COc1ccc2c(c1)c(C=C1Oc3c(ccc(O)c3O)C1=O)c(C)n2CCCCN1CCN(C)CC1 | 4.15 µM | 0.337 µM |
| COc1ccc2c(c1)c(C=C1Oc3cccc(O)c3C1=O)c(C)n2CCN1CCOCC1 | 4.13 µM | 0.65 µM |
| CN(c1ccccc1)c1cccc2c1c(/C=C1\Oc3cc(O)cc(O)c3C1=O)cn2C | 5 µM |  |
| O=C1C(=Cc2c(Br)[nH]c3ccccc23)Oc2c1ccc(O)c2O | 5 µM |  |
| COc1ccc2c(c1)c(C=C1Oc3cccc(O)c3C1=O)c(C)n2CCN1CCN(CCO)CC1 | 3.97 µM | 0.478 µM |
| COc1ccc2c(c1)c(C=C1Oc3c(ccc(O)c3O)C1=O)c(C)n2CCCCN1CCOCC1 | 0.954 µM | 0.231 µM |
| Cn1cc(/C=C2\Oc3cc(O)cc(O)c3C2=O)c2c(Br)cccc21 | 1.94 µM | 3.31 µM |
| Cn1cc(C=C2Oc3cc(O)cc(O)c3C2=O)c2c(Cl)cccc21 | 10 µM |  |
| Cn1cc(/C=C2/Oc3cc(O)cc(O)c3C2=O)c2c(-c3ccccc3)cccc21.Cn1cc(/C=C2\Oc3cc(O)cc(O)c3C2=O)c2c(-c3ccccc3)cccc21 |  | 0.266 µM |
| COc1ccc2c(c1)c(C=C1Oc3c(ccc(O)c3O)C1=O)c(C)n2CCCCN1CCN(CCO)CC1 | 3.17 µM | 0.204 µM |
| Cn1c(-c2ccc(-c3ccc(CN)cc3)cc2)c(/C=C2\Oc3cc(O)cc(O)c3C2=O)c2ccccc21 | 9.5 µM | 2.86 µM |

Next, values leading:

| IC50 [1] | IC50 [2] | Compound |
| --- | --- | --- |
| 5 µM |  | COc1ccc2c(c1)c(/C=C1\Oc3ccc(Br)cc3C1=O)cn2CCCN(C)C |
| 5 µM |  | O=C1/C(=C/c2c[nH]c3ccc(Cl)cc23)Oc2c1ccc(O)c2O |
| 0.0815 µM | 0.0095 µM | COc1ccc2[nH]c(CCn3ccnc3)c(/C=C3\Oc4cc(O)cc(O)c4C3=O)c2c1 |
| 5 µM |  | COc1cc(-c2ccncc2)c2c(c1)c(/C=C1\Oc3cc(O)ccc3C1=O)cn2CCCC#N |
|  | 0.122 µM | COc1ccc2[nH]cc(/C=C3\Oc4cc(O)cc(-c5ccccc5)c4C3=O)c2c1 |
| 7.36 µM | 0.63 µM | COC(=O)Nc1ccc2c(c1)C(=O)/C(=C/c1cn(CCN3CCN(C)CC3)c3ccc(OC)cc13)O2 |
| 5 µM |  | COc1ccc2c(c1)c(/C=C1\Oc3c(ccc(O)c3C)C1=O)c(C)n2CCCN(C)C |
|  | 0.133 µM | CCc1cc(O)cc2c1C(=O)/C(=C/c1c[nH]c3ccc(OC)cc13)O2 |
| 10 µM |  | O=C1C(=Cc2c[nH]c3cc(Cl)ccc23)Oc2cc(O)cc(O)c21 |
| 9.35 µM |  | COc1ccc2[nH]cc(/C=C3\Oc4cc(S(=O)(=O)OC(F)(F)F)ccc4C3=O)c2c1 |
|  | 9.86 µM | COc1ccc2[nH]cc(/C=C3\Oc4c(OC)cccc4C3=O)c2c1 |
|  | 10 µM | CNC(=O)Nc1ccc2c(c1)O/C(=C\c1cn(CCCN(C)C)c3ccc(OC)cc13)C2=O |
|  | 0.12 µM | COc1ccc2[nH]cc(/C=C3\Oc4cc(O)cc(Br)c4C3=O)c2c1 |
| 1.89 µM | 0.048 µM | COc1cc(/C=C/CC2CCNCC2)c2[nH]cc(/C=C3\Oc4cc(O)ccc4C3=O)c2c1 |
